Like-named read-outs stand apart in the source and are kept apart here.

Usually CC50 stands for the concentration at which the toxic effect on the cells reaches its halfway point. Read a high CC50 as lower toxicity to the cells. For orientation: melting point means the temperature of the solid-liquid transition.

Data set [1] can be described thus: Cytotoxicity CC50 on MRC-5. As to conditions: human, MRC-5 cells. Format: cell-based.
Data set [2] deals with APP-CTFs (CTFα, AICD) in SKNSH-SY5Y APPwt cells. In words: Western blotting of APP carboxy-terminal fragments (CTFα, AICD) in treated cells. Format: cell-based. As to conditions: Homo sapiens, 24 h. On the procedure: (§1) The human neuroblastoma cell line SKNSH-SY5Y APP^wt is cultured in Dulbecco's modified Eagle medium (Invitrogen) supplemented with 10% fetal calf serum (PAA), 2 mM L-glutamine (Invitrogen), 1 mM non-essential amino acids (Invitrogen), 50 units/ml penicillin/streptomycin (Invitrogen) and 200 μg geneticin (G418; Invitrogen) (selection for cell expressing APP) in a 5% CO2 humidified incubator at 37° C. Cells are seeded into 96-wells plates (20000 cells/well) for cytotoxicity assay and 12-wells plate (300000 cells/well) for western blotting for 18 h.
(§2) For western blotting, cells are incubated with 700 μl/well of each product at 10; 3; 1 and 0.31 μM in a 5% CO2 incubator at 37° C. for 24 h. The following day, culture medium samples are collected for ELISA assay and stored at −80° C. Cells are rinsed very slowly with cold PBS, snap-frozen on dry ice and immediately stored at −80° C.
Cells in twelve-well plates are collected in 50 μl Laemmli Lysis Buffer (pH 6.8, 50 mM Tris Base, 2% SDS, 20% Glycerol, 1 mM sodium pyrophosphate, 1 mM sodium orthovanadate and Protease Inhibitor Cocktail Complete Mini-Roche) per well. Cells are scrapped and lysates sonicated for 5 min.
Protein content is determined using the BCA Method (Pierce). Samples containing equal amounts of protein (35 μg total protein for mice and 20 μg total protein for cells per well) are heated at 85° C. for 2 min after thawing and electrophoresed for 2.45 h at 125 V in a 16% Tricine precast gels according to the protocol supplied with the NuPAGE system (Invitrogen). After size fractionation, the proteins are transferred onto nitrocellulose 0.2 μm pore-size membranes (Invitrogen) in the blot module of the NuPAGE sytem for 1 h at room temperature (RT). Blots are blocked for 1 h in TNT with 0.05% Tween 20 and 5% nonfat milk at RT, incubated overnight at 4° C. with anti-C term APP C1:3-2429 (1:250000) primary antibody and washed four times with TNT before being exposed to peroxidase labeled anti-mouse IgG (H+L) C4 94010 (1:50000; Vector) secondary antibody for […] at 25° C. The immunoreactions are detected with SuperSignal West Pico Chemiluminescent Substrate (Thermo specific, 34077). Images are scanned with LAS-3000 Image System (Global FUJIFILM) and bands quantified by ImageJ 1.37v computer program. The different APP-CTF bands are detected as a function of their molecular mass, as described in Vingtdeux, V., Hamdane, M., Gompel, M. et al. (2005) Phosphorylation of amyloid precursor carboxy-terminal fragments enhances their processing by a gamma-secretase-dependent mechanism. Neurobiol Dis, 20, 625-637. Graphs and statistical analysis of results is performed with Graph Pad Prism (version 4.02) computer program.
(In western blotting, separated proteins are transferred to a membrane and probed.)

The subject of the next data set is β-amyloid 1-42. In words: Innotest β-amyloid 1-42 ELISA on SY5Y culture medium. Format: cell-based. As to conditions: Homo sapiens, 24 h, compared to a control with a value of 100, read-out: Aβ 1 μM*. On the procedure: as §1, §2
The β-amyloid 1-42 rate is quantified in SY5Y cells-culture medium by using the Innotest β-amyloid 1-42 (80324 Innogenetics®) according to the manufacturer instructions. Briefly, Fresh culture medium is used to dilute the standard. Culture samples are centrifuged at 200 g at 4° C. during 5 minutes in order to eliminate cell fragments.
First, 75 μl of the conjugate working solution1 (3D6 biotinylated antibody) is added to a 21F12 Ab precoated well. Twenty five μl of pure supernatant samples are then added to the coated well, and incubated for 1 h. Then the plate is washed 5 times with the washing buffer. Then 100 μl of peroxidase-labeled streptavidin (conjugate working solution 2) is added and incubated for 30 min at RT. After washing the plate 5 times, 100 μl of tetramethyl benzidine (substrate working solution) is added onto the plate and incubated for 30 minutes in the dark. The reaction is stopped with 50 μl 0.9N sulfuric acid (stop solution). The absorbance is read at 450 nm.
A sigmoidal curve fitting (four parameter […] curve) is used to calculate the standard curve. The corresponding concentration of β-amyloid (1-42) in pg/ml is determined from the standard curve. Results are expressed in concentration of β-amyloid in pg per μg of total proteins. Graphs and statistic analyses (t Test) are performed with Graph Pad Prism computer program (V0.5).
For orientation: In an ELISA, binding on a coated surface is turned into a signal by an enzyme label.

The subject of another data set is APP-CTFα. The data set is described as follows: In vivo mice treatment, western blotting of APP-CTFs in prefrontal cortex. To be noted: C57Bl6 female mice, 12.5, 25, 50 mg/kg intraperitoneally once, prefrontal cortex 24 h after, versus vehicle. On the procedure:
Test molecules are intraperitoneally injected to 4 month old C57BI6 females mice either at 12.5; 25; 50 mg/kg or vehicule once, and sacrificed 24 h after by decapitation. Brain is immediately removed and Prefrontal Cortex is dissected by using a cold zinc brain matrix. The total dissection time was <3 min from decapitation. Following dissection tissue is frozen in dry ice and then stored at −80° C. for western blotting.
Protein extracts of Prefrontal Cortex samples are prepared in 50 μl Laemmli Lysis Buffer (pH 6.8, 50 mM Tris Base, 2% SDS, 20% Glycerol, 1 mM sodium pyrophosphate, 1 mM sodium orthovanadate and Protease Inhibitor Cocktail Complete Mini-Roche) by trituration of the fragments in a 0.2 ml glass micro tissue grinder. […]
Protein content is determined using the BCA Method (Pierce). […] The immunoreactions are detected with SuperSignal West Pico Chemiluminescent Substrate (Thermo specific, 34077). Images are scanned with LAS-3000 Image System (Global FUJIFILM) and bands quantified by ImageJ 1.37v computer program. The different APP-CTF bands are detected as a function of their molecular mass, as described in Vingtdeux, V., Hamdane, M., Gompel, M. et al. (2005) Phosphorylation of amyloid precursor carboxy-terminal fragments enhances their processing by a gamma-secretase-dependent mechanism. […]

The mark [3] stands for this setting: compared to a control with a value of 100, read-out: CTFα 1 μM*.
Setting [4] is: AICD, compared to a control with a value of 100, read-out: AlCD 1 μM*.

As to `CCN(CC)Cc1cc(Nc2ccnc3cc(Cl)ccc23)ccc1F` [compound 84, 7-chloro-N-(3-((diethylamino)methyl)-4-fluorophenyl)quinolin-4-amine], the CC50 in data set [1] is below 10 µM. In addition, the activity at 1 µM in data set [2] (setting [3]) worked out at 358%; in data set [2] (setting [4]), 209%.

As to `Clc1ccc2c(Nc3ccc(N4CCOCC4)c(CN4CCCC4)c3)ccnc2c1` [compound 86, 7-chloro-N-[4-(morpholin-4-yl)-3-(pyrrolidin-1-ylmethyl)phenyl]quinolin-4-amine], the melting point is 187 to 188 °C.

Consider `CN(C)CCCN1CCN(C(=O)c2cc(Nc3ccnc4cc(Cl)ccc34)cc(C(=O)N3CCN(CCCN(C)C)CC3)c2)CC1` [compound 64, N-[3,5-Bis({4-[3-(dimethylamino)propyl]piperazin-1-yl}carbonyl)phenyl]-7-chloroquinolin-4-amine], for which the activity at 1 µM turned out to be 31% in the data set with β-amyloid 1-42, 106% in data set [2] (setting [3]) and 669% in data set [2] (setting [4]).

Take `CN1CCN(c2cc(O)cc(Nc3ccnc4cc(Cl)ccc34)c2)CC1` [compound 72, 3-[(7-chloroquinolin-4-yl)amino]-5-(4-methyl-piperazin-1-yl)phenol]: the activity at 1 µM came out at 100% in the data set with β-amyloid 1-42, 105% in data set [2] (setting [3]) and 80% in data set [2] (setting [4]).

With `N#Cc1cc(NCCN2CCCCC2)cc(Nc2ccnc3cc(Cl)ccc23)c1` [compound 77, 3-[(7-chloroquinolin-4-yl)amino]-5-{[2-(piperidin-1-yl)ethyl]amino}benzonitrile], the activity at 1 µM amounted to 85% with β-amyloid 1-42 and 618% in data set [2] (setting [4]).

Take `N#Cc1cc(N)cc(Nc2cc[n+](CCN3CCCCC3)c3cc(Cl)ccc23)c1` [compound 74, 4-[(3-amino-5-cyanophenyl)amino]-7-chloro-1-[2-(piperidin-1-yl)ethyl]quinolin-1-ium chloride]: in the data set on β-amyloid 1-42, the activity at 1 µM was 44%.

With `COC(=O)c1cc(Nc2ccnc3cc(Cl)ccc23)cc(C(=O)N2CCN(CCCN(C)C)CC2)c1` [compound 69, Methyl 3-[(7-chloroquinolin-4-yl)amino]-5-({4-[3-(dimethylamino)propyl]piperazin-1-yl}carbonyl)benzoate], the activity at 1 µM was determined as 46% with β-amyloid 1-42, 126% in data set [2] (setting [3]) and 302% in data set [2] (setting [4]).

`N#Cc1cc(/N=c2\ccn(CCN3CCCCC3)c3cc(Cl)ccc23)cc(NCCN2CCCCC2)c1` [compound 76, 3-({7-Chloro-1-[2-(piperidin-1-yl)ethyl]-1,4-dihydroquinolin-4-ylidene}amino)-5-{[2-(piperidin-1-yl)ethyl]amino}benzonitrile]: the activity at 1 µM in the data set with β-amyloid 1-42 was found to be 76%.

For `Cc1cc(Nc2ccnc3cc(Cl)ccc23)cc(CN2CCCC2)c1N1CCN(C)CC1` [compound 59, 7-Chloro-N-[3-methyl-4-(4-methylpiperazin-1-yl)-5-(pyrrolidin-1-ylmethyl)phenyl]quinolin-4-amine], the activity at 1 µM in the data set on β-amyloid 1-42 was 73%; in data set [2] (setting [3]) it was 629%; in data set [2] (setting [4]), 325%.

`CN1CCN(c2ccc(Nc3ccnc4cc(Cl)ccc34)cc2CNC(C)(C)C)CC1` [compound 56, N-{3-[(tert-butylamino)methyl]-4-(4-methylpiperazin-1-yl)phenyl}-7-chloroquinolin-4-amine]: the activity at 1 µM stood at 45% in the data set on β-amyloid 1-42, 183% in data set [2] (setting [3]) and 823% in data set [2] (setting [4]).

Take `CN1CCN(c2cc(Nc3ccnc4cc(Cl)ccc34)cc(N3CCN(C)CC3)c2)CC1` [compound 70, N-[3,5-bis(4-methylpiperazin-1-yl)phenyl]-7-chloroquinolin-4-amine]: the figures for the activity at 1 µM in data set [2] (setting [3]) and in data set [2] (setting [4]) were 687% and 515%, respectively.

On to `CN1CCN(c2ccc(Nc3ccnc4cc(Cl)ccc34)cc2CN2CCOCC2)CC1` [compound 57, 7-chloro-N-[4-(4-methylpiperazin-1-yl)-3-(morpholin-4-ylmethyl)phenyl]quinolin-4-amine], for which the activity at 1 µM is 19% with β-amyloid 1-42, 194% in data set [2] (setting [3]) and 757% in data set [2] (setting [4]).

With `Oc1c(CN2CCCC2)cc(Nc2ccnc3cc(Cl)ccc23)cc1CN1CCCC1` [compound 66, 4-[(7-Chloroquinolin-4-yl)amino]-2,6-bis (pyrrolidin-1-ylmethyl)phenol], in the data set with APP-CTFα, the “production of APP-CTFα (optical density, FIG. 1)” value was “increases the production of APP-CTFα”. For the same compound, the activity at 1 µM in the data set on β-amyloid 1-42 turned out to be 19%; in data set [2] (setting [3]), 754%; in data set [2] (setting [4]), 886%.
